PMC10874388, “Cyclic peptides discriminate BCL-2 and its clinical mutants from BCL-XL by engaging a single-residue discrepancy” (Nature Communications, 2024)
Several values for one entry are separate records, joined by “and”; a condition that tells them apart may be missing. Equal entries are not always repeated.

Experiments:
Format in all cases: cell-based
[1] = system: Daudi cells; experiment: Cell viability assay (CellTiter-Glo), Daudi; details: Daudi
Protocol: (§1) The cell lines Jurkat (TIB-152), El4 (TIB-39), Daudi (ccl-213), RS4:11 (crl-1873), A549 (ccl-185), HepG2 (hb-8065) and PANC-1 (crl-1469) were purchased from ATCC (American Type Culture Collection), and MGC-803 (C6582) was purchased from Beyotime (https://www.beyotime.com/product/C6582.htm). […] Daudi and RS4:11 cells were cultured in RPMI-1640 medium (HyClone, SH30809.01) and 10% FBS (Gibco, 10099-141), whereas HepG2, MGC-803 and PANC-1 cells were cultured in MDEM (HyClone, SH30243.01). Cells were maintained at 37 °C under a humidified, 5% (v/v) CO2-containing atmosphere.
(§2) Cell viability was measured using CellTiter-Glo® 2.0 Reagent (Promega, G9242). […] After different inhibitors were added into serum-free medium and cultured for 4 h (RS4:11 for 6 h), FBS were supplemented to 10% and then incubated totally for 24 h or 48 h. Finally, the IC50 values were calculated based on measurements using a microplate reader (Thermo, Varioskan LUX). Statistical analysis was performed using software GraphPad Prism 7.0.

[2] = system: RS4:11 cells; experiment: Cell viability assay (CellTiter-Glo), RS4:11; details: single wells; for raw luminescence reading / inhibition rate: RS4:11
Protocol: as §1, §2

[3] = system: Jurkat cells; experiment: Cell viability assay (CellTiter-Glo), Jurkat
Protocol: as §1, §2

## CC1(C)CCC(c2ccc(Cl)cc2)=C(CN2CCN(c3ccc(C(=O)NS(=O)(=O)c4ccc(N[C@H](CCN5CCOCC5)CSc5ccccc5)c(S(=O)(=O)C(F)(F)F)c4)cc3)CC2)C1 [ABT263]
[1]; 0.78125 uM
  inhibition relative to 0 uM control, replicates: -13% and 6.58% and 11% and 14% and -14% and 9%
  raw viability signal, replicates: 1671 and 1386 and 1318 and 1281 and 1698 and 1345
[1]; 1.5625 uM
  inhibition relative to 0 uM control, replicates: 12% and 28% and 13% and 5% and 2.67% and -0.427%
  raw viability signal, replicates: 1303 and 1062 and 1294 and 1413 and 1444 and 1490
[1]; 3.125 uM
  inhibition relative to 0 uM control, replicates: 25% and 4% and 5% and 17% and 29% and 48%
  raw viability signal, replicates: 1117 and 1426 and 1406 and 1238 and 1059 and 765.3
[1]; 6.25 uM
  inhibition relative to 0 uM control, replicates: 51% and 31% and 24% and 23% and 20% and 40%
  raw viability signal, replicates: 729.7 and 1018 and 1129 and 1147 and 1185 and 883.7
[1]; 12.5 uM
  inhibition relative to 0 uM control, replicates: 38% and 61% and 46% and 56% and 44% and 48%
  raw viability signal, replicates: 920.2 and 574.4 and 802.0 and 653.5 and 827.6 and 767.5
[1]; 25 uM
  inhibition relative to 0 uM control, replicates: 71% and 70% and 63% and 61% (2×) and 82%
  raw viability signal, replicates: 436.2 and 441.9 and 545.0 and 582.0 and 581.4 and 260.8
[2]; Homo sapiens, RS4-11, RS4:11, 0.488281 nM, read-out: inhibition rate
  inhibition at 0.000488281 µM: 67%
[2]; Homo sapiens, RS4-11, RS4:11, 0.976562 nM, read-out: inhibition rate
  inhibition at 0.000976562 µM: 81%
[2]; Homo sapiens, RS4-11, RS4:11, 1.95312 nM, read-out: inhibition rate
  inhibition at 0.00195312 µM: 97%
[2]; Homo sapiens, RS4-11, RS4:11, 3.90625 nM, read-out: inhibition rate
  inhibition at 0.00390625 µM: 99%
[2]; Homo sapiens, RS4-11, RS4:11, 7.8125 nM, read-out: inhibition rate
  inhibition at 0.0078125 µM: 100%
[2]; Homo sapiens, RS4-11, RS4:11, 15.625 nM, read-out: inhibition rate
  inhibition at 0.015625 µM: 100%
[2]; Homo sapiens, RS4-11, RS4:11, 31.25 nM, read-out: inhibition rate
  inhibition at 0.03125 µM: 100%
[2]; Homo sapiens, RS4-11, RS4:11, 62.5 nM, read-out: inhibition rate
  inhibition at 0.0625 µM: 100%
[2]; Homo sapiens, RS4-11, RS4:11, 125 nM, read-out: inhibition rate
  inhibition at 0.125 µM: 100%
[2]; Homo sapiens, RS4-11, RS4:11, 250 nM, read-out: inhibition rate
  inhibition at 0.25 µM: 100%
[2]; Homo sapiens, RS4-11, RS4:11, 500 nM, read-out: inhibition rate
  inhibition at 0.5 µM: 100%
[2]; Homo sapiens, RS4-11, RS4:11, 1000 nM, read-out: inhibition rate
  inhibition at 1 µM: 100%
[2]; 0.244141 nM
  raw luminescence reading: 319400 and 358600 and 385500 and 388700 and 346000 and 423800
[2]; 0.488281 nM
  raw luminescence reading: 145900 and 162000 and 168900 and 156800 and 153400 and 152700
[2]; 0.488281 nM, 0.000488281 µM
  inhibition rate: 63% and 62% and 65% and 66%
[2]; 0.976562 nM
  raw luminescence reading: 85360 and 92040 and 97200 and 90740 and 85390 and 85400
[2]; 0.976562 nM, 0.000976562 µM
  inhibition rate: 79% and 78% and 80%
[2]; 1.95312 nM
  raw luminescence reading: 14920 and 16290 and 16450 and 15190 and 15570 and 13650
[2]; 1.95312 nM, 0.00195312 µM
  inhibition rate: 96%
[2]; 3.90625 nM
  raw luminescence reading: 2969 and 3143 and 3110 and 2929 and 2545 and 2763
[2]; 7.8125 nM
  raw luminescence reading: 1394 and 1471 and 1609 and 1459 and 1530 and 1294
[2]; 15.625 nM
  raw luminescence reading: 649.5 and 693.0 and 701.2 and 740.3 and 855.6 and 501.0
[2]; 31.25 nM
  raw luminescence reading: 598.7 and 870.6 and 1121 and 921.5 and 938.2 and 1010
[2]; 62.5 nM
  raw luminescence reading: 361.9 and 494.9 and 587.5 and 446.2 and 364.9 and 488.9
[2]; 125 nM
  raw luminescence reading: 503.8 and 401.2 and 517.1 and 644.2 and 454.2 and 588.4
[2]; 250 nM
  raw luminescence reading: 1061 and 1147 and 1486 and 1266 and 1158 and 1293
[2]; 500 nM
  raw luminescence reading: 507.0 and 488.7 and 440.9 and 484.8 and 485.1 and 504.0
[2]; 1000 nM
  raw luminescence reading: 274.1 and 376.6 and 535.0 and 446.7 and 313.0 and 467.2
[3]; 0.375 uM
  inhibition relative to 0 uM control, replicates: 36% and 32% (2×) and 29% and 31%
  raw viability signal, replicates: 1239000 and 1266000 and 1356000 and 1351000 and 1403000 and 1379000
[3]; 0.75 uM
  inhibition relative to 0 uM control, replicates: 33% and 36% and 41%
  raw viability signal, replicates: 1132000 and 1330000 and 1241000 and 1225000 and 1265000 and 1179000
[3]; 1.5 uM
  inhibition relative to 0 uM control, replicates: 44% and 41% and 40% and 37% and 34%
  raw viability signal, replicates: 1078000 and 1124000 and 1172000 and 1189000 and 1263000 and 1304000
[3]; 3 uM
  inhibition relative to 0 uM control, replicates: 44% and 39% and 40%
  raw viability signal, replicates: 1152000 and 1105000 and 1149000 and 1214000 and 1192000 and 1143000
[3]; 6 uM
  inhibition relative to 0 uM control, replicates: 47% and 44% and 41%
  raw viability signal, replicates: 1071000 and 1059000 and 1122000 and 1132000 and 1181000 and 1149000
[3]; 12 uM
  inhibition relative to 0 uM control, replicates: 60% and 56% and 54% and 53%
  raw viability signal, replicates: 855500 and 799300 and 877600 and 917700 and 934900 and 865100
[3]; Homo sapiens, 0.375 uM, read-out: inhibition relative to 0 uM control, replicates
  inhibition at 0.375 µM: 38%
[3]; Homo sapiens, 0.75 uM, read-out: inhibition relative to 0 uM control, replicates
  inhibition at 0.75 µM: 43%
[3]; Homo sapiens, 1.5 uM, read-out: inhibition relative to 0 uM control, replicates
  inhibition at 1.5 µM: 46%
[3]; Homo sapiens, 3 uM, read-out: inhibition relative to 0 uM control, replicates
  inhibition at 3 µM: 42%
[3]; Homo sapiens, 6 uM, read-out: inhibition relative to 0 uM control, replicates
  inhibition at 6 µM: 46%
[3]; Homo sapiens, 12 uM, read-out: inhibition relative to 0 uM control, replicates
  inhibition at 12 µM: 57%
